From EP0774454A1, “Excitatory amino acid receptor antagonists” (ELI LILLY AND COMPANY, priority 1995, dated 1997)

Test system: metabotropic glutamate receptors
Assay: displacement of 1S,3R-ACPD-sensitive [3H]glutamate binding to rat brain cell membranes (crude membranes of rat forebrain)
Method: The binding of [^3H]glutamate was conducted with crude membranes of rat forebrain as described by Schoepp and True, Neuroscience Lett., 145, 100-104 (1992) and Wright et al., J. Neurochemistry 63, 938-945, 1994.

| Structure (SMILES) | affinity for metabotropic glutamate receptors (result in words) | IC50 |
| --- | --- | --- |
| N[C@]1(C(=O)O)C[C@@H](SCc2ccco2)[C@@H]2[C@@H](C(=O)O)[C@@H]21 (racemic) [Example 8, 1SR,2RS,4RS,5SR,6SR-2-Amino-4-((2-furanylmethyl)thio)bicyclo[3.1.0]hexane-2,6-dicarboxylic acid] | essentially inactive | – |
| NC1(C(=O)O)CC(Sc2ccccc2)C2C(C(=O)O)C21 (stereo not drawn) [Example 1, 1SR,2RS,4SR,5SR,6SR-2-Amino-4-(phenylthio)-bicyclo[3.1.0]hexane-2,6-dicarboxylic acid] | – | 242 nM |
